Experiments:
[1] = target: three MDR protease variants (M1-M3); assay: HIV-1 protease inhibition assay; assay type: biochemical; conditions: against all three MDR protease variants (M1-M3)
[2] = tested on: wild-type and drug-resistant HIV-1 strains; assay: Antiviral assays, all viruses tested summarised; assay type: cell-based
[3] = against all the viruses tested (wild-type and MDR HIV-1)

| SMILES | MDR Ki [1] | EC50 [2, 3] | EC50 ([2]; Human immunodeficiency virus 1) |
| --- | --- | --- | --- |
| CC[C@H](C)CN(C[C@@H](O)[C@H](Cc1ccccc1)NC(=O)OCCNC(=O)C(Cl)Cl)S(=O)(=O)c1ccc(OC)cc1 [13c, 2-(2,2-dichloroacetamido)ethyl (2S,3R)-3-hydroxy-4-(4-methoxy-N-((S)-2-methylbutyl)phenylsulfonamido)-1-phenylbutan-2-ylcarbamate] | excellent potencies in the low nM ranges |  |  |
| CC[C@H](C)CN(C[C@@H](O)[C@H](Cc1ccccc1)NC(=O)OC[C@@H](C)C(=O)OC)S(=O)(=O)c1ccc(OC)cc1 [13f, (R)-methyl 3-((((2S,3R)-3-hydroxy-4-(4-methoxy-N-((S)-2-methylbutyl)phenylsulfonamido)-1-phenylbutan-2-yl)carbamoyl)oxy)-2-methylpropanoate] | excellent potencies in the low nM ranges | modest antiviral potency |  |
| CC[C@H](C)CN(C[C@@H](O)[C@H](Cc1ccccc1)NC(=O)OC[C@@H]1CCC(=O)N1)S(=O)(=O)c1ccc(OC)cc1 [13j, ((S)-5-oxopyrrolidin-2-yl)methyl ((2S,3R)-3-hydroxy-4-(4-methoxy-N-((S)-2-methylbutyl)phenylsulfonamido)-1-phenylbutan-2-yl)carbamate] | excellent potencies in the low nM ranges | modest antiviral potency |  |
| CC[C@H](C)CN(C[C@@H](O)[C@H](Cc1ccccc1)NC(=O)OCCN1CCNC1=O)S(=O)(=O)c1ccc2ncsc2c1 [14g, 2-(2-oxoimidazolidin-1-yl)ethyl ((2S,3R)-3-hydroxy-4-(N-((S)-2-methylbutyl)benzo[d]thiazole-6-sulfonamido)-1-phenylbutan-2-yl)carbamate] |  | modest antiviral potency |  |
| CC[C@H](C)CN(C[C@@H](O)[C@H](Cc1ccccc1)NC(=O)OC[C@@H]1CCC(=O)N1)S(=O)(=O)c1ccc2ncsc2c1 [14j, ((S)-5-oxopyrrolidin-2-yl)methyl ((2S,3R)-3-hydroxy-4-(N-((S)-2-methylbutyl)benzo[d]thiazole-6-sulfonamido)-1-phenylbutan-2-yl)carbamate] | excellent potencies in the low nM ranges |  | 0.0155 to 0.0356 µM |
